Laboratory results published in ChEMBL document CHEMBL1201862, “PubChem BioAssay data set” (2004).
The source made the active and inactive calls.

Tests used:
[1] = Luminescence-based cell-based high throughput dose response assay to identify activators of the DAF-12 from the parasite S. stercoralis (ssDAF-12).; assay type: functional
[2] = A Cell Based Secondary Assay To Explore Cytotoxicity of Compounds that Sensitize Mycobacterium Tuberculosis to Beta-Lactam Antibiotics.; assay type: functional
[3] = target: T1, Calpain-2 catalytic subunit (Sus scrofa, UniProt P43367); test: m-calpain protease blockers, concentration series – biochemical, fluorogenic peptide substrate, dose response (AID 1420); assay type: functional
T1 sequence (P43367 whole entry): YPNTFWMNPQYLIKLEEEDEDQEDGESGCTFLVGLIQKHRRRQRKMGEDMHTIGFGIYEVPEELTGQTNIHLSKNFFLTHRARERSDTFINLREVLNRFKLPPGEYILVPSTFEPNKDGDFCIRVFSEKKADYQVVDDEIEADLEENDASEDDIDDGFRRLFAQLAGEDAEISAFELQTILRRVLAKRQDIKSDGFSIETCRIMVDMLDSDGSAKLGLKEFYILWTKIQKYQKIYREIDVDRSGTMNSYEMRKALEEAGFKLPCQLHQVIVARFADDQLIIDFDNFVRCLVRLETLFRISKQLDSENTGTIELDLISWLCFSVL

[4] = blockers of HIV-1 ZM109 envelope-driven cell-cell fusion – HeLa effector, CEM target cells, luciferase, cherry-pick, dose response (AID 652058); assay type: functional, cell-based;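 further: luciferase signal from HIV-1 Env mediated cell-cell fusion of effector and target cells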
[5] = HIV-1 AD8 envelope cell-cell fusion blockers – cherry-pick, dose response (AID 652062); assay type: functional, cell-based;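 further: luciferase signal from cell-cell fusion driven by HIV-1 clade B AD8 Env; potency is for inhibitors of fusion seen as a drop in luminescence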
[6] = blockers of HIV-1 envelope-mediated cell-cell fusion – cherry-pick, dose response (AID 652057); assay type: functional, cell-based
BJ [7] = test: BJ-TERT fibroblast viability loss – cell-based, RAS-independent, luminescence, dose response (AID 1933); assay type: functional; conditions: Homo sapiens
BJ [8] = test: cells; assay type: functional, cell-based; conditions: Homo sapiens
BJ [9] = test: BJ-TERT-LT-ST fibroblast viability loss – cell-based, RAS-independent, luminescence, dose response (AID 1935); assay type: functional; conditions: Homo sapiens;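 further: BJ fibroblasts immortalized with TERT plus LT and ST oncogenes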
[10] = DRD fibroblast viability loss – cell-based, non-viral oncogenic, luminescence, dose response (AID 1934); assay type: functional; conditions: Homo sapiens
[11] = test system: Streptococcus sp. 'group A'; test: Streptococcus pyogenes SK(-)GAS viability under kanamycin – luminescence, BacTiterGlo, confirmation, counter-screen for streptokinase expression inhibitor project, dose response (AID 1900); assay type: functional, organism-based
[12] = Luminescence Cell-Based Dose Retest to Confirm Inhibitors of Cancer Stem Cells. [Related pubchem assays (depositor defined):AID2717, AID2721]; assay type: functional; conditions: Homo sapiens
Streptococcus = test: GAS UMAA2166 growth inhibition – luminescence, BacTiterGlo, counter-screen for streptokinase expression inhibitor project, dose response (AID 1915); assay type: functional, organism-based;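 further: potency for reduction of bacterial viability or growth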
Streptokinase A = target: T2, Streptokinase A (Streptococcus pyogenes serotype M1, UniProt P10520); test: viability-normalized secreted streptokinase activity reduction – plasminogen activation absorbance, OD405, dose response (AID 1914); assay type: functional, Streptococcus pyogenes M1 GAS;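 further: secreted streptokinase activity via plasminogen activation per viability signal from cell pellet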
T2 sequence (P10520 whole entry): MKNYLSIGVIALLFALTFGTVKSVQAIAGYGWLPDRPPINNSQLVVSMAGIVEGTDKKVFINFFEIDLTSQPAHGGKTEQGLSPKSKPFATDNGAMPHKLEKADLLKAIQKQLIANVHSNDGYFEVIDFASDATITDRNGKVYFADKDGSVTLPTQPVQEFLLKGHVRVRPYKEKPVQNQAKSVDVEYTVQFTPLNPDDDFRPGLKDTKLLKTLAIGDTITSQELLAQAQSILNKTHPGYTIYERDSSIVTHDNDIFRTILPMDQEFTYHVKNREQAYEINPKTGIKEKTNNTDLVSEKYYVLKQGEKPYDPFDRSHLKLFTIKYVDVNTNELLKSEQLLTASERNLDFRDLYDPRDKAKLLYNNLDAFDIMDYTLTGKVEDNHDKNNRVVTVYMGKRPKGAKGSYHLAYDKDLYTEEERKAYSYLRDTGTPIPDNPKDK

[13] = target: T3, DNA repair protein RAD52 homolog (Homo sapiens, UniProt P43351); assay type: functional, biochemical
T3 sequence (P43351 whole entry): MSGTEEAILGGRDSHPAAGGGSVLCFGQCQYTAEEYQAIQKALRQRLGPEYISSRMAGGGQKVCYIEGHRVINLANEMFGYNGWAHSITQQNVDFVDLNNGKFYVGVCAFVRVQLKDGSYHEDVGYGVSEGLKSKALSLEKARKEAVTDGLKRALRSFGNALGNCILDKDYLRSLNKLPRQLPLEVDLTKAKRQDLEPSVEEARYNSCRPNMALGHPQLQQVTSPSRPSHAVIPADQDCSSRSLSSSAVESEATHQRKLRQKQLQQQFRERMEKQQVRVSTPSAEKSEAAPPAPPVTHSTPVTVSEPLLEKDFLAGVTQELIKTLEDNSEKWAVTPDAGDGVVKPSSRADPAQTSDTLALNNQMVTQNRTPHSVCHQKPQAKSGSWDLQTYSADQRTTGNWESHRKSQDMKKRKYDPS

[14] = target: T4, DNA repair and recombination protein RAD54-like (Homo sapiens, UniProt Q92698); test: RAD54 Holliday junction migration blockers – biochemical, fluorescence, cherry-picked samples, dose series, confirmation (AID 651657); assay type: functional
T4 sequence (Q92698 whole entry): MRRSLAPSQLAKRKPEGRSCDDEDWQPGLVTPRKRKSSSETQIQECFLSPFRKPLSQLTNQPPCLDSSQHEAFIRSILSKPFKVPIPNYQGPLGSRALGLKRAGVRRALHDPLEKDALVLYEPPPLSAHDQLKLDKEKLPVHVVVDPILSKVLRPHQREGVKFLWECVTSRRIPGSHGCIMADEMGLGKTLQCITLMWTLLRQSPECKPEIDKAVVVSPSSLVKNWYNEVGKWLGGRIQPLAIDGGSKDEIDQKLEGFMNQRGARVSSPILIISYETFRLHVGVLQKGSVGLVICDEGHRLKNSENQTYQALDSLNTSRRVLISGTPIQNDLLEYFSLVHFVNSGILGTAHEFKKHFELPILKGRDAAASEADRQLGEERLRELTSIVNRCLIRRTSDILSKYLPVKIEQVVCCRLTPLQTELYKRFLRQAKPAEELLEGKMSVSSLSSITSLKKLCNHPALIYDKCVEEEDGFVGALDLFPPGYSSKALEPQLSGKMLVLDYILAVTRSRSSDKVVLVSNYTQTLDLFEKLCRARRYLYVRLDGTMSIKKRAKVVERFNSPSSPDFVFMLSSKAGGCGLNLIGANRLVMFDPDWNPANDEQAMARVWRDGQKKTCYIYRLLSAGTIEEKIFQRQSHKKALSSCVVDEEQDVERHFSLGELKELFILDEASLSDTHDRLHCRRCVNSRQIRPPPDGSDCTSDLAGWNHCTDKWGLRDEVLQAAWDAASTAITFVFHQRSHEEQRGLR

[15] = target: DNA dC->dU-editing enzyme APOBEC-3A (Homo sapiens, UniProt P31941); test: Dose Response confirmation of small molecule APOBEC3A DNA Deaminase Inhibitors via a fluorescence-based single-stranded DNA deaminase assay. [Related pubchem assays (depositor defined):AID493011, AID493024]; assay type: functional
DNA dC->dU-editing enzyme APOBEC-3A, sequence (P31941 whole entry): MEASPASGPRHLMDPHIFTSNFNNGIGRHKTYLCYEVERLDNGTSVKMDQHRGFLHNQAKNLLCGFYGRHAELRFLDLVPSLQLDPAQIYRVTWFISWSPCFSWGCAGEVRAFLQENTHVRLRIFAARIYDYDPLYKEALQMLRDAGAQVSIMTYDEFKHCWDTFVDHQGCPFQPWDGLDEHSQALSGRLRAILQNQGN

[16] = target: DNA dC->dU-editing enzyme APOBEC-3G (Homo sapiens, UniProt Q9HC16); assay type: functional;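 further: Dose-response counterscreen measuring inhibition of APOBEC3G DNA deaminase activity, run while confirming APOBEC3A inhibitors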
DNA dC->dU-editing enzyme APOBEC-3G, sequence (Q9HC16 whole entry): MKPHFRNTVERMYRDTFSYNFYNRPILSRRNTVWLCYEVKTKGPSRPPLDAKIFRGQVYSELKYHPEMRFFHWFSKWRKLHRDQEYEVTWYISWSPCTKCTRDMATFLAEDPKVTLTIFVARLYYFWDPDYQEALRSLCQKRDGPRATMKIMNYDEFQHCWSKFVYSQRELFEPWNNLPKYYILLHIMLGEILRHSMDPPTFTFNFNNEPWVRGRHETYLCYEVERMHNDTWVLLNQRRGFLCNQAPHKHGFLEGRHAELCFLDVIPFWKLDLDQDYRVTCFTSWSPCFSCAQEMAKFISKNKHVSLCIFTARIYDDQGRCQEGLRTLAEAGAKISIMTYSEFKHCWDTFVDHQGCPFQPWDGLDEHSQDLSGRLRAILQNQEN

[17] = viability of HCT116 lacking mutant beta-catenin – cell-based, human colon tumor, dose response (AID 1045); assay type: functional;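 further: HCT116 colon tumor cells with beta catenin knocked out; cells exposed to compound for 60 hours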
[18] = target: T5, Replicative DNA helicase DnaB (Mycobacterium tuberculosis, UniProt P9WMR3); test: DnaB intein splicing inhibitors, dose response, biochemical, cell-free fluorescence (AID 449749); assay type: functional
T5 sequence (P9WMR3 whole entry): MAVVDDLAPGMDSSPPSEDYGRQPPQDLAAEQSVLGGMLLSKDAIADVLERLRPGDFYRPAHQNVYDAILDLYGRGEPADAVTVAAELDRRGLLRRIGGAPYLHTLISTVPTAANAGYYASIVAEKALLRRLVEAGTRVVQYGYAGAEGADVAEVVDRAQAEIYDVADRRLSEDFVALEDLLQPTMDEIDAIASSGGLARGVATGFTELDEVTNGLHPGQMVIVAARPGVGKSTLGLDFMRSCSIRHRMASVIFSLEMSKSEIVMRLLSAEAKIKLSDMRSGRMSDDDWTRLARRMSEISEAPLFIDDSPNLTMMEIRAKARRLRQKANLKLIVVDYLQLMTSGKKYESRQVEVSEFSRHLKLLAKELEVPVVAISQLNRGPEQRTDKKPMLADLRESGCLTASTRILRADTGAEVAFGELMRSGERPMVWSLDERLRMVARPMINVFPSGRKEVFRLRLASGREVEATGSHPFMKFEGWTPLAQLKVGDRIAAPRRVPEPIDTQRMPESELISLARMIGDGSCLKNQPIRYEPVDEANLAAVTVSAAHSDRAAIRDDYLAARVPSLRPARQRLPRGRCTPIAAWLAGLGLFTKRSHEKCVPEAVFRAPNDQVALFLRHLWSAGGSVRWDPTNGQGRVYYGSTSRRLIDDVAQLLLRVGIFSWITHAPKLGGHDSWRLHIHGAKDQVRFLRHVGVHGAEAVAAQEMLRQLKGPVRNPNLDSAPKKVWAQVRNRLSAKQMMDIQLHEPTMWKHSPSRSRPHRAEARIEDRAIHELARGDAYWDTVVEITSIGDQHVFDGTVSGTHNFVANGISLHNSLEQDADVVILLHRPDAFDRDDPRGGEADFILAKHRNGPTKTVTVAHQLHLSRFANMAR

[19] = viability of PTEN-deleted HCT116 cells – cell-based, HCT116 PTEN knockout, dose response (AID 1047); assay type: functional;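 further: HCT116 colon tumor cells with PTEN knocked out; cells exposed to compound for 60 hours before readout; potency for loss of cell viability measured by luminescence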
Protein RecA = target: T6, Protein RecA (Mycobacterium tuberculosis, UniProt P9WHJ3); test: Fluorescence Cell-Free Homogeneous Dose Retest to Identify Inhibitors of RecA-Intein Splicing Activity. [Related pubchem assays (depositor defined):AID2097, AID2223, AID489010, AID492950]; assay type: functional
T6 sequence (P9WHJ3 whole entry): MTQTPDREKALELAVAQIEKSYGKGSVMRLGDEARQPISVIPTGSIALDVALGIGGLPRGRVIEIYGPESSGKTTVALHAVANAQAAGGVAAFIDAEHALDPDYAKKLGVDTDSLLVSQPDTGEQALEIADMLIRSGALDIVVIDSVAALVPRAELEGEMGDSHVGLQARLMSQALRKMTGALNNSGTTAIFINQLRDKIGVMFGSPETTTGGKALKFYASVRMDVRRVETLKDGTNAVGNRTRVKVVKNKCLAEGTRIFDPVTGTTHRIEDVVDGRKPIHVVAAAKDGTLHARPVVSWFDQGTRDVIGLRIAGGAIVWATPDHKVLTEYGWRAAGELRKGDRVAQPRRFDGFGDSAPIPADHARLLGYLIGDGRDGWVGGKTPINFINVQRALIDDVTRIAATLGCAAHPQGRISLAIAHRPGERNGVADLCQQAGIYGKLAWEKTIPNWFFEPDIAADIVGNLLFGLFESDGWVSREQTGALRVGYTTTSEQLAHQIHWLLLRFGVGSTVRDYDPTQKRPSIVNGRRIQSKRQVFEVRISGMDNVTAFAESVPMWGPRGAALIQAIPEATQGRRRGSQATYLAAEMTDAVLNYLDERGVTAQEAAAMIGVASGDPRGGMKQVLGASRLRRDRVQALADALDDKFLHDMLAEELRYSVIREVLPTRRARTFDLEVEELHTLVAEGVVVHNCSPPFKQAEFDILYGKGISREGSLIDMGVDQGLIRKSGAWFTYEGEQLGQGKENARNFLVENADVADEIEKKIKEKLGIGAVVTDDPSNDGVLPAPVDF

Cc1ccsc1/C=N/Nc1nc2ccccc2s1
IC50 [1]: > 67.6 µM (inactive)

COc1c(F)c(F)c(C(=O)Nc2c(C)cc(Br)cc2C)c(F)c1F
CC50 [2]: 35.6 µM (active)

Cc1ccc(OCc2nnc(S)n2C2CCCCC2)cc1
IC50 [3]: 38.6 µM (not active)

C[C@H](CO)N1C[C@H](C)[C@H](CN(C)C(=O)NC2CCCC2)Oc2cc(C#Cc3ccc(F)cc3)ccc2S1(=O)=O
AC50 [4]: 13.2 µM (active) | AC50 [5]: 24.9 µM (active) | AC50 [6]: 24.5 µM (active)

CCN1C(=O)/C(=C\c2cn(-c3ccccc3)nc2-c2cccnc2)SC1=S
EC50 (BJ [7]): 7.41 µM (inconclusive) | IC50 [3]: > 50 µM (not active) | EC50 (BJ [8]): > 150 µM (not active) | EC50 (BJ [9]): > 150 µM (inconclusive) | EC50 [10]: 17.9 µM (active)

C=C(C)C1Cc2c(C)nn(-c3cccc4ccccc34)c2C1 (stereo not drawn)
CC50 [2]: > 40 µM (active) | EC50 [11]: 7.08 µM (active) | AC50 [12]: 6.69 µM (active) | EC50 (Streptococcus): > 150 µM (not active) | EC50 (Streptokinase A): 16.8 µM (active)

CCN(CC)c1ccc(N/C=C2\C(=O)NC(=O)N(c3ccc(Cl)cc3)C2=O)cc1
CC50 [2]: > 40 µM (active)

COc1cccc(-c2cc(NC=O)c3ncc(-c4cccc(C(=O)NCCN(C)C)c4)n3c2)c1
AC50 [13]: 3.43 µM (active) | AC50 [14]: 22.3 µM (active)

COc1ccc(N2C(=O)N(Cc3ccc(C)cc3)c3ccccc3S2(=O)=O)cc1
IC50 [3]: 18.5 µM (not active)

COc1ccc(NC(=O)COc2ccc(/C=C/c3cc[n+](C)cc3)cc2OC)cc1
IC50 [15]: 3.69 µM (active) | IC50 [16]: 3.92 µM (active)

COc1ccc(/C=C2\N=C(SC)N(c3ccccc3OC)C2=O)cc1
CC50 [2]: 37 µM (active)

Cc1cccn2c(=O)c3cc(C(=O)NC4CCCC4)c(=N)n(CCCN4CCOCC4)c3nc12
AC50 [13]: 9.37 µM (active) | AC50 [14]: 21.5 µM (active)

CCc1noc(C)c1C(=O)Nc1cc(S(=O)(=O)N2CCOCC2)ccc1N1CCN(CC)CC1
IC50 [15]: 3.46 µM (active) | IC50 [16]: 5.53 µM (active)

O=S(=O)(Cc1ccccc1)c1cnc2ccccc2n1
EC50 [17]: 12.2 µM (active) | CC50 [2]: 34 µM (active) | AC50 [18]: > 380 µM (inactive) | EC50 [19]: 14.1 µM (active) | EC50 (Protein RecA): 18.3 µM (active)

COc1ccc(C(=O)C23CC4CC(C2)CC(C(=O)c2ccc(OC)cc2)(C4)C3)cc1
IC50 [3]: < 0.4 µM (not active)
